In brackets after ≈: the same amount, converted by molar mass. Several values for one entry are separate records, joined by “and”; a condition that tells them apart may be missing. Equal values may be shown once. Read-outs that look alike come from different tables or passages of the source.
Experiments:
Mould = test: Inhibitory effects of AITC, diacetyl and cinnamaldehyde vapour; format: cell-based, mould isolated from mung bean sprouts; details: 25° C.; for concentration that inhibited the growth of mould for three days: vapour in one-liter jar
Protocol: (§1) P. fluorescens was selected as a model spoilage bacteria, while mould and yeast were isolated from spoiled mung bean sprouts with bacteria excluded by cultivating in potato dextrose broth (PDB) (Sigma, Oakville, ON, Canada) at pH 5.6±0.2. Yeast and P. fluorescens stocks were cultivated in PDB and trypticase soy broth (TSB) (Bacto, BD, Sparks, USA), respectively, at 30° C. for 24 h and diluted with sterile saline solution (NaCl, 8.5 g/L water) to a concentration of 10^6 CFU/mL. An aliquot of 50 μL of the prepared yeast or bacteria suspension was spread on potato dextrose agar (PDA) (Difco, BD, Sparks, USA) or trypticase soy agar (TSA) (Bacto, BD, Sparks, USA), respectively, in 5 cm diameter petri dishes (Fisher Scientific, Ottawa, ON, Canada). Mycelium of mould was inoculated as one spot at the center of the PDA dishes. Two freshly inoculated petri dishes of same microorganism, with their lids removed, were placed in a one-liter glass jar. […] The growth of the microorganisms was monitored by the colony formation for 3 days.

P. Fluorescens = test: as above; format: cell-based, Pseudomonas fluorescens P33; details: 25° C.; for effective concentration against P. fluorescens: vapour in one-liter jar
Protocol: as §1

Yeast = test: as above; format: cell-based, yeast isolated from mung bean sprouts; details: for Yeast day1, visual colony number / Yeast day2, visual colony number / Yeast day3, visual colony number / effective concentration against yeast: 25° C.; for MIC: read-out: minimum inhibition concentration (MIC); for effective concentration against yeast: vapour in one-liter jar
Protocol: as §1

[1] = cited from earlier work; for vapor pressure (volatility): 20° C.
[2] = Release of diacetyl and AITC vapours from PEG blends into jar headspace (automatic headspace sampling, GC); format: physicochemical; details: from 4:1 PEG400:PEG10K
Protocol: PEG400 and PEG10K were blended at 1:4, 2:3, 3:2 and 4:1 (w/w) ratios. All PEG blends (20±1 g) were heated to 90° C. in a 20 mL glass vial for 20 min to ensure the polymers were melted and thoroughly mixed with the aid of a magnetic stir bar. […] The vials were capped, kept in a 75° C. oven and continuously being stirred with the magnetic stir bar for 15 min. The molten mixtures were injected into a mould fabricated from glass (2 cm×1.5 cm×0.1 cm) and allowed to set. One face of the mould was lined with aluminum tape (adhesive side facing away from PEG), which acted as a baking material for the solidified PEG. Upon solidification, diacetyl/AITC impregnated PEG sheeting was formed.
With the aid of a controller (SRI Instruments Inc., Las Vegas, Nev., USA), the headspace air in the glass jar was sampled automatically by means of a vacuum pump and two stream selection valves (Model EMTCA-CE, VICI Valco Instruments Co. Inc., Houston, Texax, USA), and injected into a gas chromatograph equipped with flame ionization detector (GC 6890, Agilent Technologies Inc., Santa Clara, Calif., USA.). Both the detector and oven temperatures were set at 150° C. The flow rates of the carrier gas (N2), compressed air and hydrogen were 30 mL/min, 200 mL/min and 30 mL/min, respectively. Retention time and peak area were analyzed by using chromatographic software (Peak Simple 393-32 bit, SRI Instruments, Torrance, Calif., USA). After each sampling, an equal amount of dry air was injected back into the jar to maintain the interior pressure at one atmosphere.
Diacetyl or AITC release profiles were generated by plotting Mn versus time.
The release profiles of the antimicrobial compounds were fitted in a model which combines first order kinetics and zero order kinetics: C=Ce×(1−e^−kt)+αt (Eq. 3) where C is the compound concentration at time t; Ce is the equilibrium concentration for diffusion; k is the diffusion rate constant; α is the rate of zero order kinetics. Models are fitted to the data before reaching the equilibrium.

[3] = cited from earlier work

Structure (SMILES): C=CCN=C=S [AITC, Allyl isothiocyanate]
- concentration that inhibited the growth of mould for three days (Mould): 0.1 mg/L
- P. Fluorescens day1, visual colony number (P. Fluorescens; Amount 0.1 mg in one-liter jar): ++ (15-50)
- P. Fluorescens day2, visual colony number (P. Fluorescens; Amount 0.1 mg in one-liter jar): ++ (15-50)
- P. Fluorescens day1, visual colony number (P. Fluorescens; Amount 0.5 mg in one-liter jar): + (less than 15)
- P. Fluorescens day2, visual colony number (P. Fluorescens; Amount 0.5 mg in one-liter jar): + (less than 15)
- effective concentration against P. fluorescens (P. Fluorescens): 1 mg/L
- Yeast day1, visual colony number (Yeast; Amount 0.1 mg in one-liter jar): + (less than 15)
- Yeast day2, visual colony number (Yeast; Amount 0.1 mg in one-liter jar): + (less than 15)
- Yeast day3, visual colony number (Yeast; Amount 0.1 mg in one-liter jar): + (less than 15)
- MIC (Yeast): 0.5 µg/mL (≈ 5.04 µM)
- effective concentration against yeast (Yeast): 0.5 mg/L
- Saturated vapor pressure ([1]; 5° C.): ~140 Pa
- vapor pressure (volatility) [1]: 0.49 kPa
- Saturated vapor pressure ([1]; 45° C.): ~1500 Pa
- Ce ([2]; 0 μL water, 5° C.): 0.0212 mg/L
- k ([2]; 0 μL water, 5° C.): 0.0149 h⁻¹
- α ([2]; 0 μL water, 5° C.): 3.39e-06 h⁻¹
- Ce ([2]; 0 μL water, 25° C.): 0.0791 mg/L
- k ([2]; 0 μL water, 25° C.): 0.016 h⁻¹ and 0.01604 h⁻¹
- α ([2]; 0 μL water, 25° C.): 1.94e-05 h⁻¹
- maximum released after 42 h ([2]; 5° C.): 0.14 mg
- Ce ([2]; 10 μL water, 5° C.): 0.0245 mg/L
- k ([2]; 10 μL water, 5° C.): 0.01509 h⁻¹
- α ([2]; 10 μL water, 5° C.): 3.63e-06 h⁻¹
- Ce ([2]; 10 μL water, 25° C.): 0.1012 mg/L
- k ([2]; 10 μL water, 25° C.): 0.01169 h⁻¹
- α ([2]; 10 μL water, 25° C.): 1.76e-05 h⁻¹
- maximum released after 42 h ([2]; 25° C.): 0.47 mg
- maximum release within 42 h ([2]; 25° C., 10 μL water): 0.15 mg
- maximum release within 42 h ([2]; 25° C., 100 μL water): 0.18 mg
- maximum release within 42 h ([2]; 25° C., 1000 μL water): 0.48 mg
- maximum release within 42 h ([2]; 25° C., dry condition): 0.13 mg
- Ce ([2]; 100 μL water, 5° C.): 0.0353 mg/L
- k ([2]; 100 μL water, 5° C.): 0.01022 h⁻¹
- α ([2]; 100 μL water, 5° C.): 1.09e-05 h⁻¹
- Ce ([2]; 100 μL water, 25° C.): 0.1523 mg/L
- k ([2]; 100 μL water, 25° C.): 0.00896 h⁻¹
- α ([2]; 100 μL water, 25° C.): 1.25e-05 h⁻¹
- Ce ([2]; 1000 μL water, 5° C.): 0.0454 mg/L
- k ([2]; 1000 μL water, 5° C.): 0.00564 h⁻¹
- α ([2]; 1000 μL water, 5° C.): 3.75e-05 h⁻¹
- Ce ([2]; 1000 μL water, 25° C.): 0.1365 mg/L
- k ([2]; 1000 μL water, 25° C.): 0.009 h⁻¹ and 0.00945 h⁻¹
- time of reaching equilibrium of release ([2]; 1000 μL water, 25° C.): around 1300 min
- α ([2]; 1000 μL water, 25° C.): 0.00029 h⁻¹ and 0.000291 h⁻¹

Structure (SMILES): CC(=O)C(C)=O [Diacetyl, 2,3-butanedione]
- Mould day1, visual colony number (Mould; Amount 1 mg in one-liter jar): + (less than 15)
- Mould day2, visual colony number (Mould; Amount 1 mg in one-liter jar): + (less than 15)
- Mould day3, visual colony number (Mould; Amount 1 mg in one-liter jar): + (less than 15)
- concentration that inhibited the growth of mould for three days (Mould): 2 mg/L
- P. Fluorescens day1, visual colony number (P. Fluorescens; Amount 1 mg in one-liter jar): + (less than 15)
- P. Fluorescens day2, visual colony number (P. Fluorescens; Amount 1 mg in one-liter jar): + (less than 15)
- effective concentration against P. fluorescens (P. Fluorescens): 2 mg/L
- Yeast day1, visual colony number (Yeast; Amount 1 mg in one-liter jar): + (less than 15)
- Yeast day2, visual colony number (Yeast; Amount 1 mg in one-liter jar): + (less than 15)
- Yeast day3, visual colony number (Yeast; Amount 1 mg in one-liter jar): + (less than 15)
- Yeast day1, visual colony number (Yeast; Amount 2 mg in one-liter jar): + (less than 15)
- Yeast day2, visual colony number (Yeast; Amount 2 mg in one-liter jar): + (less than 15)
- Yeast day3, visual colony number (Yeast; Amount 2 mg in one-liter jar): + (less than 15)
- Yeast day2, visual colony number (Yeast; Amount 3 mg in one-liter jar): + (less than 15)
- Yeast day3, visual colony number (Yeast; Amount 3 mg in one-liter jar): + (less than 15)
- MIC (Yeast; established on yeast, mould and P. fluorescens from Table 8): 4 µg/mL (≈ 46.5 µM)
- effective concentration against yeast (Yeast): 4 mg/L
- Saturated vapor pressure ([1]; 5° C.): ~2400 Pa
- vapor pressure (volatility) [1]: 6.9 kPa
- Saturated vapor pressure ([1]; 45° C.): ~20100 Pa
- Ce ([2]; 0 μL water, 5° C.): 0.631 mg/L
- k ([2]; 0 μL water, 5° C.): 0.00764 h⁻¹
- α ([2]; 0 μL water, 5° C.): 0.000149 h⁻¹
- Ce ([2]; 0 μL water, 25° C.): 1.965 mg/L
- k ([2]; 0 μL water, 25° C.): 0.00837 h⁻¹
- α ([2]; 0 μL water, 25° C.): 0.000258 h⁻¹
- maximum released after 42 h ([2]; 5° C.): 1.98 mg
- Ce ([2]; 10 μL water, 5° C.): 1.074 mg/L
- k ([2]; 10 μL water, 5° C.): 0.00484 h⁻¹
- α ([2]; 10 μL water, 5° C.): 0.000236 h⁻¹
- Ce ([2]; 10 μL water, 25° C.): 1.701 mg/L
- k ([2]; 10 μL water, 25° C.): 0.01425 h⁻¹
- α ([2]; 10 μL water, 25° C.): 0.00034 h⁻¹
- maximum released after 42 h ([2]; 25° C.): 2.85 mg
- Ce ([2]; 100 μL water, 5° C.): 1.418 mg/L
- k ([2]; 100 μL water, 5° C.): 0.00159 h⁻¹
- α ([2]; 100 μL water, 5° C.): 0.000253 h⁻¹
- Ce ([2]; 100 μL water, 25° C.): 1.901 mg/L
- k ([2]; 100 μL water, 25° C.): 0.01281 h⁻¹
- α ([2]; 100 μL water, 25° C.): 0.000272 h⁻¹
- Ce ([2]; 1000 μL water, 5° C.): 0.151 mg/L
- k ([2]; 1000 μL water, 5° C.): 0.01321 h⁻¹
- α ([2]; 1000 μL water, 5° C.): 0.000301 h⁻¹
- Ce ([2]; 1000 μL water, 25° C.): 2.156 mg/L
- k ([2]; 1000 μL water, 25° C.): 0.00728 h⁻¹
- α ([2]; 1000 μL water, 25° C.): 0.000279 h⁻¹

Structure (SMILES): Cc1ccc(C(C)C)cc1O [carvacrol, 5-isopropyl-2-methylphenol]
- vapor pressure ([1]; 22° C.): 0.0042 kPa
- vapor pressure ([1]; 25° C.): 0.0087 kPa
- solubility in water [3]: low solubility in water
